Results from ChEMBL document CHEMBL1152000, “Anti-allergy agents. 3. Angular tricyclic ether derivatives of the 1,8-naphthyridin-2(1H)-one ring system” (1994).

What was measured:
Type in all cases: functional
Cavia porcellus [1] = assay: In vivo percent inhibition of ovalbumin induced bronchospasm in sensitized guinea pig after peroral administration at dose of 2 mg/kg for single dose; settings: route oral
Cavia porcellus [2] = species: Cavia porcellus; assay: In vitro percent inhibition of LTD4 release from sensitized guinea pig lung fragment at dose of 3 uM
Cavia porcellus [3] = species: Cavia porcellus; assay: In vitro percent inhibition of LTD4 release from sensitized guinea pig lung fragment at dose of 10 uM
Cavia porcellus [4] = species: Cavia porcellus; assay: In vitro percent inhibition of LTD4 release from sensitized guinea pig lung fragment at dose of 1 uM
Cavia porcellus [5] = assay: In vivo percent inhibition of ovalbumin induced bronchospasm in sensitized guinea pig after peroral administration at dose of 1 mg/kg for single dose; settings: route oral
Cavia porcellus [6] = assay: In vivo percent inhibition of ovalbumin induced bronchospasm in sensitized guinea pig after peroral administration at dose of 0.5 mg/kg for multiple dose; settings: route oral
Cavia porcellus [7] = assay: In vivo percent inhibition of ovalbumin induced bronchospasm in sensitized guinea pig after peroral administration at dose of 0.5 mg/kg for single dose; settings: route oral
Cavia porcellus [8] = assay: In vivo percent inhibition of ovalbumin induced bronchospasm in sensitized guinea pig after peroral administration at dose of 0.25 mg/kg for single dose; settings: route oral
Cavia porcellus [9] = assay: In vivo percent inhibition of ovalbumin induced bronchospasm in sensitized guinea pig after peroral administration at dose of 6.25 mg/kg for multiple dose; settings: route oral
Cavia porcellus [10] = assay: In vivo percent inhibition of ovalbumin induced bronchospasm in sensitized guinea pig after peroral administration at dose of 12.5 mg/kg for multiple dose; settings: route oral
Cavia porcellus [11] = assay: In vivo percent inhibition of ovalbumin induced bronchospasm in sensitized guinea pig after peroral administration at dose of 12 mg/kg for single dose; settings: route oral
Cavia porcellus [12] = assay: In vivo percent inhibition of ovalbumin induced bronchospasm in sensitized guinea pig after peroral administration at dose of 3 mg/kg for single dose; settings: route oral
Cavia porcellus [13] = assay: In vivo percent inhibition of ovalbumin induced bronchospasm in sensitized guinea pig after peroral administration at dose of 25 mg/kg for single dose; settings: route oral
Cavia porcellus [14] = assay: In vivo percent inhibition of ovalbumin induced bronchospasm in sensitized guinea pig after peroral administration at dose of 2 mg/kg for multiple dose; settings: route oral
Cavia porcellus [15] = assay: In vivo percent inhibition of ovalbumin induced bronchospasm in sensitized guinea pig after peroral administration at dose of 1 mg/kg for multiple dose; settings: route oral
Cavia porcellus [16] = assay: In vivo percent inhibition of ovalbumin induced bronchospasm in sensitized guinea pig after peroral administration at dose of 10 mg/kg for single dose; settings: route oral
Cavia porcellus [17] = assay: In vivo percent inhibition of ovalbumin induced bronchospasm in sensitized guinea pig after peroral administration at dose of 5 mg/kg for single dose; settings: route oral
Cavia porcellus [18] = assay: In vivo percent inhibition of ovalbumin induced bronchospasm in sensitized guinea pig after peroral administration at dose of 3.13 mg/kg for multiple dose; settings: route oral

SMILES: O=c1c2c(c3cccnc3n1-c1ccccc1)OCCCC2
- inhibition in vivo at 2 mg/kg (Cavia porcellus [1]): 71%
- inhibition at 3 µM (Cavia porcellus [2]): 75%

SMILES: CC1Cc2c(c3cccnc3n(-c3ccccc3)c2=O)O1 (stereo unspecified)
- inhibition at 10 µM (Cavia porcellus [3]): 60%

SMILES: CC1Cc2c(c3cccnc3n(-c3cccc(Cl)c3)c2=O)O1 (stereo unspecified)
- inhibition in vivo at 2 mg/kg (Cavia porcellus [1]): 38%
- inhibition at 1 µM (Cavia porcellus [4]): 64%

SMILES: O=c1c2c(c3cccnc3n1-c1ccc(Cl)cc1)OCCC2
- inhibition at 3 µM (Cavia porcellus [2]): 33%

SMILES: O=c1c2c(c3cccnc3n1-c1cccc(Cl)c1)OCCCC2
- inhibition in vivo at 1 mg/kg (Cavia porcellus [5]): 74%
- inhibition in vivo at 2 mg/kg (Cavia porcellus [1]): 85%
- inhibition at 1 µM (Cavia porcellus [4]): 100%
- inhibition in vivo at 0.5 mg/kg (Cavia porcellus [6]): 50%
- inhibition at 3 µM (Cavia porcellus [2]): 62%
- inhibition in vivo at 0.5 mg/kg (Cavia porcellus [7]): 62%
- inhibition in vivo at 0.25 mg/kg (Cavia porcellus [8]): 27%

SMILES: O=c1c2c(c3cccnc3n1-c1ccccc1)OCC2
- inhibition at 10 µM (Cavia porcellus [3]): 72%
- inhibition in vivo at 6.25 mg/kg (Cavia porcellus [9]): 65%
- inhibition in vivo at 12.5 mg/kg (Cavia porcellus [10]): 90%
- inhibition at 3 µM (Cavia porcellus [2]): 54%
- inhibition in vivo at 12 mg/kg (Cavia porcellus [11]): 86%
- inhibition in vivo at 3 mg/kg (Cavia porcellus [12]): 42%
- inhibition in vivo at 25 mg/kg (Cavia porcellus [13]): 79%

SMILES: Cc1ccc(-n2c(=O)c3c(c4cccnc42)OCC3)cc1
- inhibition at 10 µM (Cavia porcellus [3]): 59%
- inhibition at 3 µM (Cavia porcellus [2]): 28%

SMILES: O=c1c2c(c3cccnc3n1-c1cccc(Cl)c1)OCC2
- inhibition in vivo at 2 mg/kg (Cavia porcellus [1]): 87%
- inhibition in vivo at 2 mg/kg (Cavia porcellus [14]): 62%
- inhibition at 3 µM (Cavia porcellus [2]): 71%
- inhibition in vivo at 1 mg/kg (Cavia porcellus [15]): 21%
- inhibition in vivo at 10 mg/kg (Cavia porcellus [16]): 93%

SMILES: Cc1ccc(-n2c(=O)c3c(c4cccnc42)OCCC3)cc1
- inhibition at 3 µM (Cavia porcellus [2]): 27%

SMILES: O=c1c2c(c3cccnc3n1-c1ccc(Cl)c(Cl)c1)OCC2
- inhibition at 10 µM (Cavia porcellus [3]): 63%
- inhibition in vivo at 5 mg/kg (Cavia porcellus [17]): 0%
- inhibition at 3 µM (Cavia porcellus [2]): 62%

SMILES: COc1ccc(-n2c(=O)c3c(c4cccnc42)OCC3)cc1
- inhibition at 3 µM (Cavia porcellus [2]): 17%

SMILES: O=c1c2c(c3cccnc3n1-c1ccc(Cl)cc1)OCC2
- inhibition at 3 µM (Cavia porcellus [2]): 33%

SMILES: O=c1c2c(c3cccnc3n1-c1ccc(Cl)c(Cl)c1)OCCC2
- inhibition at 3 µM (Cavia porcellus [2]): 48%

SMILES: O=c1c2c(c3cccnc3n1-c1ccccc1)OCCC2
- inhibition at 10 µM (Cavia porcellus [3]): 62%
- inhibition in vivo at 3.13 mg/kg (Cavia porcellus [18]): 20%
- inhibition in vivo at 6.25 mg/kg (Cavia porcellus [9]): 51%
- inhibition in vivo at 12.5 mg/kg (Cavia porcellus [10]): 43%
- inhibition at 3 µM (Cavia porcellus [2]): 26%
- inhibition in vivo at 25 mg/kg (Cavia porcellus [13]): 62%

SMILES: COc1ccc(-n2c(=O)c3c(c4cccnc42)OCCC3)cc1
- inhibition at 3 µM (Cavia porcellus [2]): 28%
